Test results from ChEMBL document CHEMBL3046402, “Synthesis of substituted benzo[d]thiazol-2-ylcarbamates as potential anticonvulsants” (2013).
The source made the active and inactive calls. The calls are words filed in the database; no cut-off is given here.

Assays:
[1] = system: Mus musculus; experiment: Anticonvulsant activity in Swiss albino Mus musculus (mouse) assessed protection against PTZ-induced clonic convulsion at 35 mg/kg administered 60 min prior to PTZ-challenge measured up to 30 min relative to control; assay type: functional
[2] = system: Mus musculus; experiment: Anticonvulsant activity in Swiss albino Mus musculus (mouse) assessed as time of onset of PTZ-induced clonic convulsion at 35 mg/kg administered 60 min prior to PTZ-challenge (reference value: 59.166 +/- 0.04216 Secs); assay type: functional
[3] = system: Mus musculus; experiment: Anticonvulsant activity in Swiss albino Mus musculus (mouse) assessed as protection against maximal electric shock-induced death at 35 mg/kg administered 30 min prior to maximal electric shock-challenge; assay type: functional, organism-based; parameters: dose 35 mg/kg
[4] = system: Mus musculus; experiment: Anticonvulsant activity in Swiss albino Mus musculus (mouse) assessed as latency time of maximal electric shock-induced clonus onset at 35 mg/kg administered 30 min prior to maximal electric shock-challenge (reference value: 3.16 +/- 0.0833 min); assay type: functional
[5] = system: Mus musculus; experiment: Anticonvulsant activity against maximal electric shock-induced seizures in Swiss albino Mus musculus (mouse) assessed as time duration of tonic flexions at 35 mg/kg administered 30 min prior to maximal electric shock-challenge (reference value: 0 secs); assay type: functional
[6] = system: Mus musculus; experiment: Anticonvulsant activity in Swiss albino Mus musculus (mouse) assessed as time duration of maximal electric shock-induced tonic extension at 35 mg/kg administered 30 min prior to maximal electric shock-challenge (reference value: 20.66 +/- 0.8433 secs); assay type: functional
[7] = system: Mus musculus; experiment: Anticonvulsant activity in Swiss albino Mus musculus (mouse) assessed as latency time of maximal electric shock-induced clonus onset at 20 mg/kg administered 30 min prior to maximal electric shock-challenge (reference value: 3.16 +/- 0.0833 min); assay type: functional
[8] = system: Mus musculus; experiment: Anticonvulsant activity in Swiss albino Mus musculus (mouse) assessed as time duration of maximal electric shock-induced tonic extension at 20 mg/kg administered 30 min prior to maximal electric shock-challenge (reference value: 20.66 +/- 0.8433 secs); assay type: functional
[9] = system: Mus musculus; experiment: Anticonvulsant activity against maximal electric shock-induced seizures in Swiss albino Mus musculus (mouse) assessed as time duration of tonic flexions at 20 mg/kg administered 30 min prior to maximal electric shock-challenge (reference value: 0 secs); assay type: functional
[10] = system: Mus musculus; experiment: Anticonvulsant activity in Swiss albino Mus musculus (mouse) assessed as protection against maximal electric shock-induced death at 20 mg/kg administered 30 min prior to maximal electric shock-challenge; assay type: functional, organism-based; parameters: dose 20 mg/kg
[11] = system: Mus musculus; experiment: Anticonvulsant activity in Swiss albino Mus musculus (mouse) assessed protection against PTZ-induced clonic convulsion at 20 mg/kg administered 60 min prior to PTZ-challenge measured up to 30 min relative to control; assay type: functional

| Structure (SMILES) | Activity [1] [%] | Time [2] [s] | Activity [3] | Time [4] [min] | Time [5] [s] | Time [6] [s] | Time [7] [min] | Time [8] [s] | Time [9] [s] | Activity [10] | Activity [11] [%] |
| --- | --- | --- | --- | --- | --- | --- | --- | --- | --- | --- | --- |
| Cc1cccc2sc(NC(=O)Oc3ccccc3)nc12 | 83.33 | 75.166 | Active | 9.58 | 5.48 | 0 | – | – | – | – | – |
| O=C1NC(=O)C(c2ccccc2)(c2ccccc2)N1 [PHENYTOIN] | – | – | – | – | – | – | 13.39 | 0 | 5.34 | Active | 100 |
| CCOC(=O)Nc1nc2ccc(Cl)cc2s1 | 66.66 | 71.83 | Active | 5.4 | 9.27 | 0 | – | – | – | – | – |
| CCOC(=O)Nc1nc2ccc(OC)cc2s1 | 100 | – | Active | 9.56 | 6.4 | 0 | – | – | – | – | – |
| CCOC(=O)Nc1nc2ccc(C)cc2s1 | 100 | – | Active | 12.55 | 6.24 | 0 | – | – | – | – | – |
| O=C(Nc1nc2ccc(Cl)cc2s1)Oc1ccccc1 | 66.66 | 70.83 | Active | 11.2 | 8.34 | 0 | – | – | – | – | – |
| O=C(Nc1nc2ccccc2s1)Oc1ccccc1 | 100 | – | Active | 11.47 | 9.54 | 0 | – | – | – | – | – |
| Cc1ccc2nc(NC(=O)Oc3ccccc3)sc2c1 | 100 | – | Active | 13.28 | 6.74 | 0 | – | – | – | – | – |
| CCOC(=O)Nc1nc2ccccc2s1 | 83.33 | 86.66 | Active | 11.18 | 7.29 | 0 | – | – | – | – | – |
| CCOC(=O)Nc1nc2ccc(CC)cc2s1 | 83.33 | 83 | Active | 10.415 | 8.12 | 0 | – | – | – | – | – |
| COc1ccc2nc(NC(=O)Oc3ccccc3)sc2c1 | 66.66 | 80.5 | Active | 4.675 | 11.08 | 0 | – | – | – | – | – |
| O=C(Nc1nc2ccc([N+](=O)[O-])cc2s1)Oc1ccccc1 | 100 | – | Active | 10.34 | 6.32 | 0 | – | – | – | – | – |
| CCOC(=O)Nc1nc2ccc([N+](=O)[O-])cc2s1 | 83.33 | 80.5 | Active | 8.37 | 7.44 | 0 | – | – | – | – | – |
| CCc1ccc2nc(NC(=O)Oc3ccccc3)sc2c1 | 83.33 | 86 | Active | 7.59 | 5.2916 | 0 | – | – | – | – | – |
| CCOC(=O)Nc1nc2c(C)cccc2s1 | 83.33 | 85.166 | Active | 10.36 | 7.33 | 0 | – | – | – | – | – |
